One experiment has as its system Diplodia maydis (Dm). Put plainly: Growth inhibition assay of fungal pathogens, Dm. Format: cell-based. Conditions: Stenocarpella maydis, 48 h. An outline of the steps:
(§1)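 Percent inhibition derived at 48 hours from OD600 and visual scores versus 2% DMSO control, with media+DMSO blank as background. Spore inocula in 17% V8 medium were sized from 48 h growth curves; compounds tested at final 50/10/2 or 2/0.4/0.08 ppm.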

Experiment [1] has as its system Fusarium virguliforme (Fv). Nature of the experiment: Growth inhibition assay of fungal pathogens, Fv. It is filed as cell-based. Conditions: 48 h. An outline of the steps: as §1
A further experiment concerns Rhizoctonia solani (Rs). Put plainly: Growth inhibition assay of fungal pathogens, Rs. It is filed as cell-based. Conditions: 48 h.
The subject of a further experiment is C. parapsilosis. Nature of the experiment: Antifungal Activity Assay (broth microtiter MIC), C. parapsilosis. It is filed as cell-based, Candida parapsilosis. The following applies: Lodderomyces parapsilosis, ATCC22019, 48 h. An outline of the steps: (§2)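 Colonies from 24 h Sabouraud dextrose agar plates (35° C) are suspended in RPMI 1640+MOPS and diluted to give 2.5×10^3 CFU/mL in the wells. Plates are set up per CLSI M27-A3. Visual MIC is recorded at 48 h.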

Experiment [2] deals with Phytophthora capsici (Pc). Put plainly: Growth inhibition assay of fungal pathogens, Pc. It is filed as cell-based. The following applies: 48 h. An outline of the steps: as §1
The next experiment concerns the target human (hACC2) (Homo sapiens, UniProt O00763). Nature of the experiment: In vitro ACC inhibition assay (ADP-Glo), hACC2. Conditions: 5 nM ACC2, 20 μM ATP, 20 μM acetyl-CoA. Format: biochemical. The method, then:
The detailed procedure is as follows. […] 10 μL ADP glo reagent was added. […] 20 μL kinase detection reagent was added.

The target in a further experiment is fungal (fACC2) (UniProt Q00955). Conditions: read-out: fACC2 (in vitro ACC2 Inhibition Assay, IC50), ADP-Glo, 5 nM ACC2, 20 μM ATP, 20 μM acetyl-CoA. On the technique in general: ADP-Glo first removes unused ATP, then detects ADP through luciferase.
Chain of fungal (fACC2) (Q00955 whole entry): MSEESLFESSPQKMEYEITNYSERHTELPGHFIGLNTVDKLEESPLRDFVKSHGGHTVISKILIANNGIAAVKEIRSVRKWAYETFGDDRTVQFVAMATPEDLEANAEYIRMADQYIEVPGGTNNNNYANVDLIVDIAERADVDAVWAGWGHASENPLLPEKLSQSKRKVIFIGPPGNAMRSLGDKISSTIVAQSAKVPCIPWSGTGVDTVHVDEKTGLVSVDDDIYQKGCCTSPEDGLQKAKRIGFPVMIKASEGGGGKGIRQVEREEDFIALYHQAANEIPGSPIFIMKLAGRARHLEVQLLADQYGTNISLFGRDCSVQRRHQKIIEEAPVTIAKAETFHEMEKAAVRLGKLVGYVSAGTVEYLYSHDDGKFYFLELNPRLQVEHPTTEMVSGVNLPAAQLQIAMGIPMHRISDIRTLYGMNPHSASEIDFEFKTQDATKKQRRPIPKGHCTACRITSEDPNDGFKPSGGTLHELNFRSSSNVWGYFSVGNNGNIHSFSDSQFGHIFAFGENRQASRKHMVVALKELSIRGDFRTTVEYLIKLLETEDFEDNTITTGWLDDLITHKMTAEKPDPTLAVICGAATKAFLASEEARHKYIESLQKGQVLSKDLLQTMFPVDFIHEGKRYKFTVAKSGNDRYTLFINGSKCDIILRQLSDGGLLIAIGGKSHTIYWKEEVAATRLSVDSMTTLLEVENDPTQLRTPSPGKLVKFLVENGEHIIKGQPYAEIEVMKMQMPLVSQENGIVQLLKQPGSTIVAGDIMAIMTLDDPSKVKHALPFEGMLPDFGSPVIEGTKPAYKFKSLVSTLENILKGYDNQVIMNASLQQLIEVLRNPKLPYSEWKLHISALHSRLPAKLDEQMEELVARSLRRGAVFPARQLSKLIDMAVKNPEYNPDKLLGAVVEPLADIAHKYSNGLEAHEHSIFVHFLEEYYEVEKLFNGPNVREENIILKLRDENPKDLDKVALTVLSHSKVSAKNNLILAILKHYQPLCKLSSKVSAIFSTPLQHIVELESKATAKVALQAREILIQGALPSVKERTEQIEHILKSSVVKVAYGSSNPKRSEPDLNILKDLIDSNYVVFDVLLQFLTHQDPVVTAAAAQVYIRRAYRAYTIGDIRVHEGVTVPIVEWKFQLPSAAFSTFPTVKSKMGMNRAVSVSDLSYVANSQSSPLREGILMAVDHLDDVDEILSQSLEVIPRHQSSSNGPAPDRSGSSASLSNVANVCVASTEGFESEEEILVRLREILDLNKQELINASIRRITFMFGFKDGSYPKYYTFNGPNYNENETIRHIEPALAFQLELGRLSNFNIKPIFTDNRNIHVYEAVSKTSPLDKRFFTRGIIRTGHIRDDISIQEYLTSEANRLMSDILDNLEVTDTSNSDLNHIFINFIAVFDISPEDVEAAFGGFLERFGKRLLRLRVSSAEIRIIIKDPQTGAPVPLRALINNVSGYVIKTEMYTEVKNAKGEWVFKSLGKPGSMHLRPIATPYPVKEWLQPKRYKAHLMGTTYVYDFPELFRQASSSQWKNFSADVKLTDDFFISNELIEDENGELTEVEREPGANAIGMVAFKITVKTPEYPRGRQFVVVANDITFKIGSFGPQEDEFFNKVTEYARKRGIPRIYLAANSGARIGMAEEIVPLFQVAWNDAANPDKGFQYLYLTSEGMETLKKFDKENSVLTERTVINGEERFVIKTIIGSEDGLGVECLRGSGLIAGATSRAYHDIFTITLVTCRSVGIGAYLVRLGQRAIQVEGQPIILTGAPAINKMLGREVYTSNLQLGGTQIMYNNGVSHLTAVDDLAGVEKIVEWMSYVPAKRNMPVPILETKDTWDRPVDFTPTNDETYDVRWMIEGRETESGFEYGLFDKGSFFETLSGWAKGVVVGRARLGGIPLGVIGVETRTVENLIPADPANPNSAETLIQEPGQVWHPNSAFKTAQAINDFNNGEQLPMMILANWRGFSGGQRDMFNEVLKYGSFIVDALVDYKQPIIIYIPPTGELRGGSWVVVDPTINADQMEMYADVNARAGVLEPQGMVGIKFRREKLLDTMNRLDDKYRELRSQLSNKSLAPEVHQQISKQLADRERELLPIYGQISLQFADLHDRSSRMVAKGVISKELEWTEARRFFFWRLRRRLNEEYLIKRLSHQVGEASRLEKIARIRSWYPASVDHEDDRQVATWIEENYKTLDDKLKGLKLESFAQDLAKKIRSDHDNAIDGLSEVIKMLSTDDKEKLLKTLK
In another experiment the test system is C. albicans. Put plainly: Antifungal Activity Assay (broth microtiter MIC), C. albicans. Format: cell-based, Candida albicans. Conditions: Candida albicans, ATCC90028, 48 h. An outline of the steps:
as §2

In another experiment the test system is Botrtyis cinerea (Bc). Put plainly: Growth inhibition assay of fungal pathogens, Bc. Format: cell-based. Conditions: 48 h. A digest of the protocol: as §1
The test system of the next experiment is C. krusei. Put plainly: Antifungal Activity Assay (broth microtiter MIC), C. krusei. It is filed as cell-based, Candida krusei. Conditions: Pichia kudriavzevii, ATCC6258, 48 h. A digest of the protocol: as §2

Values after ≈ are worked out from the molar mass of the structure shown. Where two headings read alike, the source gives them in different places.

Chain of human (hACC2) (O00763 whole entry): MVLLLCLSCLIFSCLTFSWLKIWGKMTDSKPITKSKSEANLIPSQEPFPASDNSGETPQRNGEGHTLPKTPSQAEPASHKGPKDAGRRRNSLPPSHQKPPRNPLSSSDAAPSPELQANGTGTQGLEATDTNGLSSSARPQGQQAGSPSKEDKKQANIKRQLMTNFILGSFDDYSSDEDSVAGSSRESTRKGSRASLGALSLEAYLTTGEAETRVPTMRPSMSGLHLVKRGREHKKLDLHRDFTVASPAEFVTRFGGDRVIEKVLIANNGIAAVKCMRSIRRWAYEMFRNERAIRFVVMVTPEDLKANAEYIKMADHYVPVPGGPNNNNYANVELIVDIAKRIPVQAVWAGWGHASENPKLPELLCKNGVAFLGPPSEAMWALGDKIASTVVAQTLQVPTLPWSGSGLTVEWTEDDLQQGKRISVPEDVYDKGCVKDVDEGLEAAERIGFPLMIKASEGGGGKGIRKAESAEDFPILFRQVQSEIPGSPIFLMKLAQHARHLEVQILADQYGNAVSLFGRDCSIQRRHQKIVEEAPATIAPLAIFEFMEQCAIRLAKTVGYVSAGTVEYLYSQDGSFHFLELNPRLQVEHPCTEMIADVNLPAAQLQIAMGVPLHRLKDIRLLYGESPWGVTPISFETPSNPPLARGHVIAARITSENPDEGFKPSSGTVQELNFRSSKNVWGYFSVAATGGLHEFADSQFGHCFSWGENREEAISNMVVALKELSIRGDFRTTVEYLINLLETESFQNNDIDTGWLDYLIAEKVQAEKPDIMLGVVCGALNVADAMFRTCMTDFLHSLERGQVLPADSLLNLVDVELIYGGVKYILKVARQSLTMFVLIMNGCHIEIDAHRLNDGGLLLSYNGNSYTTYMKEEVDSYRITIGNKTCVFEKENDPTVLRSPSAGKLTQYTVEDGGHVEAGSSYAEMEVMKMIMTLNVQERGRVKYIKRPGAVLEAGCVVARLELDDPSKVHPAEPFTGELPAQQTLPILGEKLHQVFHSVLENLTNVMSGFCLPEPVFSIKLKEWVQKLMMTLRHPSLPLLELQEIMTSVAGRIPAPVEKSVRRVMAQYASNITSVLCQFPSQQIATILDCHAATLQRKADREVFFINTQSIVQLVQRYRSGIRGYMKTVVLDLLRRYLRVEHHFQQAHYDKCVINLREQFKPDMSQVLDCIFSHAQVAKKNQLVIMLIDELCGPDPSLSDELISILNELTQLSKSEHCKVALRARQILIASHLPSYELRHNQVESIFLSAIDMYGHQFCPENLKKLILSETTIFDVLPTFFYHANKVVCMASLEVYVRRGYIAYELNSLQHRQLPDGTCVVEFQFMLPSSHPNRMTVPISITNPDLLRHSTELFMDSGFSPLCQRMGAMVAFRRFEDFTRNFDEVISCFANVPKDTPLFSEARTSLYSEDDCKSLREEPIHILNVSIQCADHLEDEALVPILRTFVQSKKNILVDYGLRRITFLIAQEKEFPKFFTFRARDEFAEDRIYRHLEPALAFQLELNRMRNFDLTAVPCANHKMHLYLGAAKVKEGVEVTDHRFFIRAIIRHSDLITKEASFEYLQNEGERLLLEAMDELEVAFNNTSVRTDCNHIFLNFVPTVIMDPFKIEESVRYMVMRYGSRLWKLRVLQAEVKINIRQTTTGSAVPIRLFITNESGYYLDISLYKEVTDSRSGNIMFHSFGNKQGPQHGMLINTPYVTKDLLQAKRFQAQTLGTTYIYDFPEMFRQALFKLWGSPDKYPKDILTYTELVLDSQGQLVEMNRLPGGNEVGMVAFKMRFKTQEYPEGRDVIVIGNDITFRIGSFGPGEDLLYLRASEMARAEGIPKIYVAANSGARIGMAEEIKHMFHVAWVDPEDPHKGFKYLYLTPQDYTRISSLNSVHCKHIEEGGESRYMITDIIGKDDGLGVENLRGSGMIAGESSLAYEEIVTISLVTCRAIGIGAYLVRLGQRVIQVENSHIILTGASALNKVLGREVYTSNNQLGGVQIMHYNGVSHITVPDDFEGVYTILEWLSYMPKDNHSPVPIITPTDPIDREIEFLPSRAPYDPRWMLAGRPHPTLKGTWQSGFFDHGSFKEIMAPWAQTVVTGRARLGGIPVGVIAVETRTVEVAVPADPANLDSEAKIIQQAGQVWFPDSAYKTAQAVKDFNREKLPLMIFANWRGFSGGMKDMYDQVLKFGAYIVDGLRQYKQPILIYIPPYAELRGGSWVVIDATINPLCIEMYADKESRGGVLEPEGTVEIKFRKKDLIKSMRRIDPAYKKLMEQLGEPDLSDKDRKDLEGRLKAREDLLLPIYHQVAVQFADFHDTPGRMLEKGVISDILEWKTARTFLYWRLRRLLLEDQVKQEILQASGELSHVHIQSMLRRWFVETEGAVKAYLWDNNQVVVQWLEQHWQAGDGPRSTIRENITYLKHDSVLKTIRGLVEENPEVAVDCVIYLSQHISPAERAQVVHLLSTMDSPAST

`COc1ccc(F)cc1[C@H](Cn1c(=O)n(C(C)(C)C(=O)NC(C)C)c(=O)c2c(C)c(-n3nccn3)sc21)OC(C)C` [Compound I-4, (R)-2-(1-(2-(5-fluoro-2-methoxyphenyl)-2-isopropoxyethyl)-5-methyl-2,4-dioxo-6-(2H-1,2,3-triazol-2-yl)-1,4-dihydrothieno[2,3-d]pyrimidin-3(2H)-yl)-N-isopropyl-2-methylpropanamide]: the IC90 in the experiment with Diplodia maydis (Dm) (read-out: Concentration at 90% Inhibition Dm, Diplodia maydis, growth inhibition at 48 hours vs 2% DMSO control) was 0.08 µg/mL (≈ 0.136 µM); with Diplodia maydis (Dm) (read-out: Concentration at 90% Inhibition Dm, Diplodia maydis, growth inhibition vs 2% DMSO control at 48 hours), 0.08 µg/mL (≈ 0.136 µM); in experiment [1] (read-out: Concentration at 90% Inhibition Fv, Fusarium virguliforme, growth inhibition at 48 hours vs 2% DMSO control) it was 0.4 µg/mL (≈ 0.682 µM); in [1] (read-out: Concentration at 90% Inhibition Fv, Fusarium virguliforme, growth inhibition vs 2% DMSO control at 48 hours) it was 0.4 µg/mL (≈ 0.682 µM); in the experiment with Rhizoctonia solani (Rs) (read-out: Concentration at 90% Inhibition Rs, Rhizoctonia solani, mycelial plugs, growth inhibition at 48 hours vs 2% DMSO control), 0.08 µg/mL (≈ 0.136 µM); in the experiment with Rhizoctonia solani (Rs) (read-out: Concentration at 90% Inhibition Rs, Rhizoctonia solani, mycelial plugs, growth inhibition vs 2% DMSO control at 48 hours), 0.08 µg/mL (≈ 0.136 µM). Also, the IC90 in [2] (read-out: Concentration at 90% Inhibition Pc, Phytophthora capsici, growth inhibition at 48 hours vs 2% DMSO control) was above 50 µg/mL; in [2] (read-out: Concentration at 90% Inhibition Pc, Phytophthora capsici, growth inhibition vs 2% DMSO control at 48 hours) it was above 50 µg/mL; with Botrtyis cinerea (Bc) (read-out: Concentration at 90% Inhibition Bc, Botrtyis cinerea, growth inhibition at 48 hours vs 2% DMSO control) it was 0.08 µg/mL (≈ 0.136 µM); in the experiment with Botrtyis cinerea (Bc) (read-out: Concentration at 90% Inhibition Bc, Botrtyis cinerea, growth inhibition vs 2% DMSO control at 48 hours), 0.08 µg/mL (≈ 0.136 µM). For the same compound, the minimum inhibitory concentration (MIC) in the experiment with C. parapsilosis (read-out: MIC, C. parapsilosis ATCC 22019, Table 3a, 3 replicates, MIC recorded at 48 h) fell in the range of 0.25 to 1 µg/mL (≈ 0.426 to 1.7 µM); in the experiment with C. parapsilosis (read-out: MIC, C. parapsilosis ATCC 22019, Table 3b (additional results), 3 replicates, MIC recorded at 48 h), 1.01 to 2 µg/mL (≈ 1.72 to 3.41 µM); in the experiment on C. albicans (read-out: MIC, C. albicans ATCC 90028, Table 3a, 3 replicates, MIC recorded at 48 h) it was 0.25 to 1 µg/mL (≈ 0.426 to 1.7 µM); in the experiment on C. albicans (read-out: MIC, C. albicans ATCC 90028, Table 3b (additional results), 3 replicates, MIC recorded at 48 h), 0.25 to 1 µg/mL (≈ 0.426 to 1.7 µM); in the experiment on C. krusei (read-out: MIC, C. krusei ATCC 6258, Table 3a, 3 replicates, MIC recorded at 48 h) it was 0.25 to 1 µg/mL (≈ 0.426 to 1.7 µM); in the experiment on C. krusei (read-out: MIC, C. krusei ATCC 6258, Table 3b (additional results), 3 replicates, MIC recorded at 48 h) it was 0.25 to 1 µg/mL (≈ 0.426 to 1.7 µM). In addition, the half-inhibitory concentration (IC50) lay in the range of 5 to 10 nM at human (hACC2) (Table 2a); 5 to 10 nM at human (hACC2) (Table 2b, additional results); 1 to 5 nM on fungal (fACC2) (Table 2a); 1 to 5 nM on fungal (fACC2) (Table 2b, additional results).
As for `COc1ccc(F)cc1[C@H](Cn1c(=O)n(C(C)(C)C(=O)N2CCCC2)c(=O)c2c(C)c(-n3nccn3)sc21)OC(C)C` [Compound I-7, (R)-1-(2-(5-fluoro-2-methoxyphenyl)-2-isopropoxyethyl)-5-methyl-3-(2-methyl-1-oxo-1-(pyrrolidin-1-yl)propan-2-yl)-6-(2H-1,2,3-triazol-2-yl)thieno[2,3-d]pyrimidine-2,4(1H,3H)-dione], the IC90 in the experiment with Diplodia maydis (Dm) (Diplodia maydis, growth inhibition at 48 hours vs 2% DMSO control, read-out: Concentration at 90% Inhibition Dm) worked out at 0.08 µg/mL (≈ 0.134 µM); in the experiment on Diplodia maydis (Dm) (Diplodia maydis, growth inhibition vs 2% DMSO control at 48 hours, read-out: Concentration at 90% Inhibition Dm), 0.08 µg/mL (≈ 0.134 µM); in [1] (growth inhibition at 48 hours vs 2% DMSO control, read-out: Concentration at 90% Inhibition Fv) it was 0.08 µg/mL (≈ 0.134 µM); in experiment [1] (growth inhibition vs 2% DMSO control at 48 hours, read-out: Concentration at 90% Inhibition Fv), 0.08 µg/mL (≈ 0.134 µM); with Rhizoctonia solani (Rs) (mycelial plugs, growth inhibition at 48 hours vs 2% DMSO control, read-out: Concentration at 90% Inhibition Rs), 0.08 µg/mL (≈ 0.134 µM); in the experiment on Rhizoctonia solani (Rs) (mycelial plugs, growth inhibition vs 2% DMSO control at 48 hours, read-out: Concentration at 90% Inhibition Rs), 0.08 µg/mL (≈ 0.134 µM). The IC90 in experiment [2] (growth inhibition at 48 hours vs 2% DMSO control, read-out: Concentration at 90% Inhibition Pc) was above 50 µg/mL; in experiment [2] (growth inhibition vs 2% DMSO control at 48 hours, read-out: Concentration at 90% Inhibition Pc), above 50 µg/mL; in the experiment with Botrtyis cinerea (Bc) (Botrtyis cinerea, growth inhibition at 48 hours vs 2% DMSO control, read-out: Concentration at 90% Inhibition Bc), 0.4 µg/mL (≈ 0.668 µM); with Botrtyis cinerea (Bc) (Botrtyis cinerea, growth inhibition vs 2% DMSO control at 48 hours, read-out: Concentration at 90% Inhibition Bc) it was 0.4 µg/mL (≈ 0.668 µM). In addition, the MIC with C. parapsilosis (Table 3a, ATCC 22019, 3 replicates, MIC recorded at 48 h, read-out: MIC, C. parapsilosis ATCC 22019) lay within 1.1 to 2 µg/mL (≈ 1.84 to 3.34 µM); in the experiment on C. parapsilosis (Table 3b (additional results), ATCC 22019, 3 replicates, MIC recorded at 48 h, read-out: MIC, C. parapsilosis ATCC 22019), 1.01 to 2 µg/mL (≈ 1.69 to 3.34 µM); in the experiment on C. albicans (Table 3a, ATCC 90028, 3 replicates, MIC recorded at 48 h, read-out: MIC, C. albicans ATCC 90028), 1.1 to 2 µg/mL (≈ 1.84 to 3.34 µM); in the experiment with C. albicans (Table 3b (additional results), ATCC 90028, 3 replicates, MIC recorded at 48 h, read-out: MIC, C. albicans ATCC 90028) it was 0.25 to 1 µg/mL (≈ 0.418 to 1.67 µM); in the experiment with C. krusei (Table 3a, ATCC 6258, 3 replicates, MIC recorded at 48 h, read-out: MIC, C. krusei ATCC 6258) it was 0.25 to 1 µg/mL (≈ 0.418 to 1.67 µM); with C. krusei (Table 3b (additional results), ATCC 6258, 3 replicates, MIC recorded at 48 h, read-out: MIC, C. krusei ATCC 6258) it was 0.25 to 1 µg/mL (≈ 0.418 to 1.67 µM). Also, the IC50 on human (hACC2) (Table 2a) lay within 5 to 10 nM; on human (hACC2) (Table 2b, additional results), 5 to 10 nM; at fungal (fACC2) (Table 2a), 1 to 5 nM; at fungal (fACC2) (Table 2b, additional results), 1 to 5 nM.

As a reminder, the MIC is the smallest concentration in the dilution series that meets the test's criterion for growth inhibition. As a reminder, the IC50 is the midpoint of a concentration-inhibition curve.

For the origin of these results see patent US10800791B2, “Triazole ACC inhibitors and uses thereof” (Gilead Apollo, LLC, priority 2015, dated 2020).
